Measured values from US10022352B2, “Modulators of ATP-binding cassette transporters” (Vertex Pharmaceuticals Incorporated, priority 2006, dated 2018).
pEC50: −log10 of the molar value. Read-outs that look alike come from different tables or passages of the source.

Key:
ΔF508-CFTR = ΔF508-CFTR (Homo sapiens (Human), UniProt P13569, DEL508-508); assay: Membrane potential optical assay, identification of correction compounds; type: cell-based
From the text: Membrane potential optical methods for assaying ΔF508-CFTR modulation properties of compounds.
The assay utilizes fluorescent voltage sensing dyes to measure changes in membrane potential using a fluorescent plate reader (e.g., FLIPR II, Molecular Devices, Inc.) as a readout for increase in functional ΔF508-CFTR in NIH 3T3 cells. The driving force for the response is the creation of a chloride ion gradient in conjunction with channel activation by a single liquid addition step after the cells have previously been treated with compounds and subsequently loaded with a voltage sensing dye.
Identification of Correction Compounds
To identify small molecules that correct the trafficking defect associated with ΔF508-CFTR; a single-addition HTS assay format was developed. Assay Plates containing cells are incubated for ˜2-4 hours in tissue culture incubator at 37° C., 5% CO2, 90% humidity. Cells are then ready for compound exposure after adhering to the bottom of the assay plates.
The cells were incubated in serum-free medium for 16-24 hrs in tissue culture incubator at 37° C., 5% CO2, 90% humidity in the presence or absence (negative control) of test compound. The cells were subsequently rinsed 3× with Krebs Ringers solution and loaded with a voltage sensing redistribution dye. To activate ΔF508-CFTR, 10 μM forskolin and the CFTR potentiator, genistein (20 μM), were added along with Cl^−-free medium to each well. The addition of Cl^−-free medium promoted Cl^− efflux in response to ΔF508-CFTR activation and the resulting membrane depolarization was optically monitored using voltage sensor dyes.
Bath #1: (in mM) NaCl 160, KCl 4.5, CaCl2 2, MgCl2 1, HEPES 10, pH 7.4 with NaOH.
free bath solution: Chloride salts in Bath Solution #1 are substituted with gluconate salts.
NIH3T3 fibroblasts stably expressing ΔF508-CFTR are used for optical measurements of membrane potential. The cells are maintained at 37° C. in 5% CO2 and 90% humidity in Dulbecco's modified Eagle's medium supplemented with 2 mM glutamine, 10% fetal bovine serum, 1×NEAA, β-ME, 1× pen/strep, and 25 mM HEPES in 175 cm^2 culture flasks. For all optical assays, the cells were seeded at ˜20,000/well in 384-well matrigel-coated plates and cultured for 2 hrs at 37° C. before culturing at 27° C. for 24 hrs. for the potentiator assay. For the correction assays, the cells are cultured at 27° C. or 37° C. with and without compounds for 16-24 hours. Electrophysiological Assays for assaying ΔF508-CFTR modulation properties of compounds.

Solubility in water = type: physicochemical

Sequence of ΔF508-CFTR (P13569 other isoform, or with tags, fused parts or gaps del F508-F508): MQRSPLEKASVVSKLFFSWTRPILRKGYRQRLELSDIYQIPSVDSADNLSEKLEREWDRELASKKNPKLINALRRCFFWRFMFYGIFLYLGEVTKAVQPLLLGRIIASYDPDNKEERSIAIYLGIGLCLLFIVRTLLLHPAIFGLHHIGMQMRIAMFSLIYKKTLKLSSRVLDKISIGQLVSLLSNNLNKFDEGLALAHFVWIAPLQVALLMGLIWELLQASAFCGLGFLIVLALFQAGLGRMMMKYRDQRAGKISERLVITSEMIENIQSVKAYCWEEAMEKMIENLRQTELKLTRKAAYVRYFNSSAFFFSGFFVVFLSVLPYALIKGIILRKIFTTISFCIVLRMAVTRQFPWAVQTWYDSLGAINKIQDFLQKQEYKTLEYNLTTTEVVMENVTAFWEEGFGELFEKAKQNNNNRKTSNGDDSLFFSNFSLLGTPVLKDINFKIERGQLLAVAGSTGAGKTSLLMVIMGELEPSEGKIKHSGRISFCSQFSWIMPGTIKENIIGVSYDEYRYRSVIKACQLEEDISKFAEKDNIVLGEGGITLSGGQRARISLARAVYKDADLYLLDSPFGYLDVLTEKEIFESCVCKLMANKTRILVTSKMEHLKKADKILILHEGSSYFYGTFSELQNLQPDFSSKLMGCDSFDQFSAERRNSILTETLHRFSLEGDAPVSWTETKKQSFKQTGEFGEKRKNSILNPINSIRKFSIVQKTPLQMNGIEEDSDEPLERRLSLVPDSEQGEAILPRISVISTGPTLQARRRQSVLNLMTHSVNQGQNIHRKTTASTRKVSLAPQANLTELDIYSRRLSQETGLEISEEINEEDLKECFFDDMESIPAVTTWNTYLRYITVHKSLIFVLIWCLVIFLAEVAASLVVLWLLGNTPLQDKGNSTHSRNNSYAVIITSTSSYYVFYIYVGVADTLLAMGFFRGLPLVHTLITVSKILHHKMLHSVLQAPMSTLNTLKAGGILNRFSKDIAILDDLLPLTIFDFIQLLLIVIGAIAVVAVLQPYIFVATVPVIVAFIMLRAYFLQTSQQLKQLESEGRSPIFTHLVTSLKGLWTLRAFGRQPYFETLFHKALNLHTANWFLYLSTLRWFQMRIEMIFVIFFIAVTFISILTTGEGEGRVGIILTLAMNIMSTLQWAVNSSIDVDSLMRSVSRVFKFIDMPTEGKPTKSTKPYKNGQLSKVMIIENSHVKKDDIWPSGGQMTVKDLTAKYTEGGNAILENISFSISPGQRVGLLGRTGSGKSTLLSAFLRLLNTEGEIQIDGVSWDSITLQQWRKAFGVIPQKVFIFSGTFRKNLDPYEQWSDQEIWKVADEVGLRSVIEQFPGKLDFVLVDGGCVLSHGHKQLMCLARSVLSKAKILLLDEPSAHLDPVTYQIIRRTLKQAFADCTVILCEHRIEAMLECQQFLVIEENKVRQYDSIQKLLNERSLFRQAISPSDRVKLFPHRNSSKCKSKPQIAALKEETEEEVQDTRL

| Compound | pEC50 (ΔF508-CFTR; read-out: Binned EC50) | Emax (ΔF508-CFTR; read-out: Binned Max Efficacy) [%] | pEC50 (ΔF508-CFTR; read-out: EC50) | Emax (ΔF508-CFTR; read-out: Max Efficacy) [%] | Binned Max Efficacy (ΔF508-CFTR) | Max Efficacy (ΔF508-CFTR) [%] | solubility (Solubility in water) [µg/mL] |
| --- | --- | --- | --- | --- | --- | --- | --- |
| CC(C)(C)c1cc2cc(NC(=O)C3(c4ccc5c(c4)CCC5)CC3)ccc2n1C[C@@H](O)CO [Compound 307] | > 5.70 | > 100 | 6.01 | 160 |  |  |  |
| CC(C)(CCOC[C@@H](O)CO)c1cc2cc(NC(=O)C3(c4ccc5c(c4)OC(F)(F)O5)CC3)c(F)cc2n1C[C@@H](O)CO [Compound 308] | 5.30 to 5.70 | > 100 | 5.51 | 100 |  |  |  |
| CN(C)CCn1c(C(C)(C)C)cc2cc(NC(=O)C3(c4ccc5c(c4)OC(F)(F)O5)CC3)c(F)cc21 [Compound 309] | > 5.70 |  | 7.42 |  | +++ (“+++” means >100%) | 122 |  |
| CC(C)(C)c1cc2cc(NC(=O)C3(c4ccc5c(c4)OCO5)CC3)c(F)cc2n1C[C@@H](O)CO [Compound 310] | > 5.70 |  | 6.80 |  | +++ (“+++” means >100%) | 120.5 |  |
| CC(C)(CCO)c1cc2cc(NC(=O)C3(c4ccc5c(c4)OC(F)(F)O5)CC3)c(F)cc2n1C[C@@H](O)CO [Compound 311] | > 5.70 | > 100 | 7.09 | 126 |  |  |  |
| CC(C)(C)c1cc2c(C#N)c(NC(=O)C3(c4ccc5c(c4)OC(F)(F)O5)CC3)ccc2n1CCO [Compound 312] | > 5.70 | > 100 | 6.74 | 118 |  |  |  |
| CC(C)(C)c1cc2c(C#N)c(NC(=O)C3(c4ccc5c(c4)OC(F)(F)O5)CC3)ccc2[nH]1 [Compound 313] | > 5.70 | > 100 | 6.55 | 102 |  |  |  |
| CC1(C)CCn2c1cc1cc(NC(=O)C3(c4ccc5c(c4)OC(F)(F)O5)CC3)c(F)cc12 [Compound 314] | > 5.70 | > 100 | 6.64 | 124 |  |  |  |
| CC(C)(CO)c1cc2cc(NC(=O)C3(c4ccc5c(c4)OC(F)(F)O5)CC3)c(F)cc2n1C[C@@H](O)CO [Compound 315] | > 5.70 | > 100 | 6.57 | 106 |  |  |  |
| CC(C)(CCOC[C@@H](O)CO)c1cc2cc(NC(=O)C3(c4ccc5c(c4)OC(F)(F)O5)CC3)c(F)cc2[nH]1 [Compound 316] | > 5.70 | > 100 | 6.55 | 126 |  |  |  |
| COc1ccc(C2(C(=O)Nc3ccc4[nH]c(C(C)(C)C)cc4c3)CC2(C)C)cc1 (stereo not shown) [Compound 317] | 5.30 to 5.70 | 25 to 100 | 5.34 | 65.5 |  |  |  |
| CC(C)(C)c1cc2cc(NC(=O)C3(c4ccc5c(c4)OCO5)CC3)c(F)cc2n1C[C@@H](O)CO [Compound 318] | > 5.70 | > 100 | 7.18 | 132 |  |  |  |
| COc1ccc(C2(C(=O)Nc3ccc4c(c3)cc(C(C)(C)C)n4C[C@@H](O)CO)CC2(C)C)cc1 (stereo partly shown) [Compound 319] | > 5.70 | > 100 | 7.41 | 126 |  |  |  |
| CC(C)(CO)c1cc2cc(NC(=O)C3(c4ccc5c(c4)OC(F)(F)O5)CC3)c(F)cc2[nH]1 [Compound 320] | 5.30 to 5.70 | 25 to 100 | 5.37 | 94 |  |  |  |
| CC(C)(C)c1cc2cc(NC(=O)C3(c4ccc(O)c(O)c4)CC3)ccc2n1C[C@@H](O)CO [Compound 321] | > 5.70 | 25 to 100 | 5.74 | 76 |  |  |  |
| CC(C)(C)c1cc(C(C)(C)C)c(NC(=O)c2c[nH]c3ccccc3c2=O)cc1O [Compound B, N-(2,4-di-tert-butyl-5-hydroxyphenyl)-4-oxo-1,4-dihydroquinoline-3-carboxamide] |  |  |  |  |  |  | < 0.05 |
